SMILES strings stand for the structures.

For the experiment, the species on record is Oryctolagus cuniculus. Description: In vitro relaxation of precontracted rabbit aortic rings. It is filed as functional. The settings on record: Aorta.
A word on the EC50: it is the concentration that produces a half-maximal response. The low end stands for higher potency in that assay, the high end for lower potency in that assay. Turning to `CC(=O)ON1C(=O)c2ccccc2S1(=O)=O`, the EC50 stood at 52.2 µM.
For `O=C1c2ccccc2S(=O)(=O)N1O`, the 50% effective concentration (EC50) was found to be 14.4 µM.
To `O=S(=O)(NO)c1ccc(Cl)cc1` belongs 1.36 µM; to `O=S(=O)(NO)c1ccccc1`, 1.03 µM.
